The results in this text go back to ChEMBL document CHEMBL4825696, “Development of photocontrolled BRD4 PROTACs for tongue squamous cell carcinoma (TSCC)” (Eur J Med Chem, 2021).

Calls of active or inactive are those of the source. The rule behind the calls is not given here.

Assay [1] is described as follows: Induction of apoptosis in human HN-6 cells assessed as necrotic cells at 5 uM measured after 1 hr by AnnexinV-FITC/propidium iodide staining based flow cytometry analysis (reference value: 3.37%). The assay is classed as functional. A general note: Flow cytometry measures light scatter and fluorescence of single cells or particles in a stream.
Assay [2] is described as follows: (§1) Antiproliferative activity against human HN-6 cells assessed as reduction in cell viability incubated for 24 hrs by CCK-8 assay. To be noted: HN-6, 24 h. Format: functional, cell-based. (In general: Tetrazolium assays rely on reduction of a dye to a coloured formazan, in cell work by metabolically active cells.)
Assay [3] addresses T1, Protein cereblon/Bromodomain-containing protein 4 (Homo sapiens) (UniProt O60885+Q96SW2). Kind of assay: PROTAC activity at CBRN/BRD4 in human HEK293T cells assessed as degradation of BRD4 measured after 30 mins by Fluorescence polarization competitive binding assay. Format: cell-based. (Fluorescence polarisation rises when a labelled molecule tumbles more slowly, as on binding a larger partner.)

Assay [4] can be described thus: Induction of apoptosis in human HN-6 cells assessed as late apoptotic cells at 5 uM measured after 1 hr by AnnexinV-FITC/propidium iodide staining based flow cytometry analysis (reference value: 1.46%). The assay is classed as functional.
Assay [5] deals with T1, Protein cereblon/Bromodomain-containing protein 4 (Homo sapiens). Kind of assay: PROTAC activity at CRBN/BRD4 in human HEK293T cells assessed as BRD4 degradation by measuring downregulation of c-Myc level by western blot analysis. The assay is classed as cell-based.
Assay [6] has as its system HN-6. Nature of the assay: Antitumor activity against human HN-6 cells xenografted in nude mouse assessed as tumor growth inhibition at 50 mg/kg, ip administered every day for 2 weeks and measured every 2 days. The assay is classed as functional, organism-based.
Assay [7] has as its system HN-6. Kind of assay: Antitumour activity against human HN-6 cells xenografted in zebrafish embryo assessed as inhibition of tumour growth at 50 uM measured after 72 hrs by microscopic method. Format: functional.
The target of assay [8] is T1, Protein cereblon/Bromodomain-containing protein 4 (Homo sapiens). Nature of the assay: PROTAC activity at CRBN/BRD4 in human HEK293T cells assessed as BRD4 degradation by measuring downregulation of BRD4 level at 0.1 to 10 uM by western blot analysis. As to conditions: dose 0.1-10 µM. The assay is classed as cell-based.
Assay [9] in a line: Induction of apoptosis in human HN-6 cells assessed as early apoptotic cells at 5 uM measured after 1 hr by AnnexinV-FITC/propidium iodide staining based flow cytometry analysis (Rvb =1.54%). The assay is classed as functional.
Assay [10] is described as follows: Induction of apoptosis in human HN-6 cells assessed as viable cells at 5 uM measured after 1 hr by AnnexinV-FITC/propidium iodide staining based flow cytometry analysis (reference value: 93.62%). The assay is classed as functional. To be noted: read-out: Activity.
For assay [11], the system named is HN-6. The description is as §1. Format: functional, cell-based.
Assay [12] in a line: Induction of apoptosis in human HN-6 cells assessed as late apoptotic cells at 5 uM irradiated with 365 nm UVA light for 15 mins followed by incubation with compound for 24 hrs by AnnexinV-FITC/propidium iodide staining based flow cytometry analysis (Rvb =1.69%). Format: functional.
Assay [13] in a line: Induction of apoptosis in human HN-6 cells assessed as viable cells at 5 uM irradiated with 365 nm UVA light for 15 mins followed by incubation with compound for 24 hrs by AnnexinV-FITC/propidium iodide staining based flow cytometry analysis (reference value: 90.31%). The assay is classed as functional. To be noted: HN-6, light or radiation study, read-out: Activity.
Assay [14] has as its target T1, Protein cereblon/Bromodomain-containing protein 4 (Homo sapiens). Nature of the assay: PhotoPROTAC activity at CRBN/BRD4 in human HEK293T cells assessed as BRD4 degradation by measuring downregulation of c-Myc level pretreated for 1 hr followed by irradiation with 365 nm UVA light for 15 mins and measured after 24 hrs by Western blot analysis. The assay is classed as cell-based. As to conditions: time 1515.0 min.

Assay [15] is described as follows: Induction of apoptosis in human HN-6 cells assessed as necrotic cells at 5 uM irradiated with 365 nm UVA light for 15 mins followed by incubation with compound for 24 hrs by AnnexinV-FITC/propidium iodide staining based flow cytometry analysis (reference value: 2.7%). The assay is classed as functional.
Assay [16] can be described thus: Photolysis of compound in DMSO-d6 assessed as 2-((S)-4-(4-chlorophenyl)-2,3,9-trimethyl-6H-thieno[3,2-f][1,2,4]triazolo[4,3a][1,4]diazepin-6-yl)-N-(4-(2-((2-(2,6-dioxopiperidin-3-yl)-1,3-dioxoisoindolin-4-yl)oxy)acetamido)butyl)acetamide formation at 10 mM incubated for 60 mins under 365 nm UVA irradiation by 1H-NMR analysis. The assay is classed as functional.

Assay [17] can be described thus: Induction of apoptosis in human HN-6 cells assessed as early apoptotic cells at 5 uM irradiated with 365 nm UVA light for 15 mins followed by incubation with compound for 24 hrs by AnnexinV-FITC/propidium iodide staining based flow cytometry analysis (reference value: 5.3%). Format: functional.
In assay [18] the target is T1, Protein cereblon/Bromodomain-containing protein 4 (Homo sapiens). Kind of assay: PhotoPROTAC activity at CRBN/BRD4 in human HEK293T cells assessed as BRD4 degradation by measuring downregulation of BRD4 level at 3 uM pretreated for 1 hr followed by irradiation with 365 nm UVA light for 15 mins and measured after 24 hrs by Western blot analysis. The assay is classed as cell-based. As to conditions: time 1515.0 min.

The subject of assay [19] is HN-6. Kind of assay: Antitumour activity against human HN-6 cells xenografted in zebrafish embryo assessed as inhibition of tumour growth at 50 uM irradiated with 365 nm UVA light for 20 mins and measured after 3 days by microscopic method. As to conditions: time 3.0 day. Format: functional.
For assay [20], the system named is HN-6. Kind of assay: Antiproliferative activity against human HN-6 cells assessed as reduction in cell viability irradiated with 365 nm UVA light for 15 mins followed by incubation with compound for 24 hrs by CCK-8 assay. Format: functional, cell-based.
Assay [21] in a line: Photolysis of compound in acetonitrile assessed as 2-((S)-4-(4-chlorophenyl)-2,3,9-trimethyl-6H-thieno[3,2-f][1,2,4]triazolo[4,3a][1,4]diazepin-6-yl)-N-(4-(2-((2-(2,6-dioxopiperidin-3-yl)-1,3-dioxoisoindolin-4-yl)oxy)acetamido)butyl)acetamide formation at 40 uM incubated for 60 mins under 365 nm UVA irradiation by HPLC analysis. The assay is classed as functional.
Assay [22] is described as follows: Photolysis of compound in acetonitrile assessed as 2-((S)-4-(4-chlorophenyl)-2,3,9-trimethyl-6H-thieno[3,2-f][1,2,4]triazolo[4,3a][1,4]diazepin-6-yl)-N-(4-(2-((2-(2,6-dioxopiperidin-3-yl)-1,3-dioxoisoindolin-4-yl)oxy)acetamido)butyl)acetamide formation at 40 uM incubated for 60 mins under 365 nm UVA irradiation by UV-Vis spectral analysis. The assay is classed as functional.

Assay [23] addresses T1, Protein cereblon/Bromodomain-containing protein 4 (Homo sapiens). Kind of assay: PhotoPROTAC activity at CBRN/BRD4 in human HEK293T cells assessed as degradation of BRD4 irradiated with 365 nm UVA light for 15 mins followed by incubation with compound for 30 mins by Fluorescence polarization competitive binding assay. Format: cell-based.
A short description of assay [24]: Photolysis of compound in acetonitrile assessed as 2-(2,6-dioxo-3-piperidyl)isoindoline-1,3-dione formation at 40 uM incubated for 40 mins under 365 nm UVA irradiation by HPLC analysis. Format: functional.
Assay [25] in a line: Photolysis of compound in acetonitrile assessed as 2-(2,6-dioxo-3-piperidyl)isoindoline-1,3-dione formation at 40 uM incubated for 40 mins under 365 nm UVA irradiation by UV-Vis spectral analysis. The assay is classed as functional.

A word on the IC50: it is the concentration that inhibits the measured activity by half. For the compound `Cc1sc2c(c1C)C(c1ccc(Cl)cc1)=N[C@@H](CC(=O)NCCCCNC(=O)COc1cccc3c1C(=O)N(C1CCC(=O)NC1=O)C3=O)c1nnc(C)n1-2` (stereo not given in full), the Activity is 3% in assay [1], “Dose-Dependent Effect” in assay [3], 12.17% in [4] and 33.75% in assay [9]. The IC50 in assay [2] worked out at 7.07 µM. In addition, the outcome (in assay [5]; in the assay on HN-6 [6]; in the assay with HN-6 [7]; in [8]) was Active. In addition, the viability at 5 µM in assay [10] worked out at 51.1%.

Take `COc1cc(CN2C(=O)CCC(N3C(=O)c4cccc(OCC(=O)NCCCCNC(=O)C[C@@H]5N=C(c6ccc(Cl)cc6)c6c(sc(C)c6C)-n6c(C)nnc65)c4C3=O)C2=O)c([N+](=O)[O-])cc1OC` (stereo not given in full): the Activity in assay [1] is 2.55%; in [12], 8.35%; in [4] it was 4.05%; in assay [15], 4.24%; in assay [17] it was 19.29%; in [23] it was “Dose-Dependent Effect”. Besides, in assay [9], the Activity is recorded as 10.85%. Further, the result in the assay with HN-6 [11] and in the assay with HN-6 [7] was inactive. For the same compound, the viability at 5 µM came to 68.1% in assay [13] and 82.5% in assay [10]. The result (in assay [14]; in assay [18]; in the assay with HN-6 [19]; in the assay with HN-6 [20]) was Active. In addition, the Drug metabolism entry in assay [16], in assay [21] and in assay [22] was “Metabolite detected” throughout.

As for `COc1cc(CN2C(=O)CCC(N3C(=O)c4ccccc4C3=O)C2=O)c([N+](=O)[O-])cc1OC` (stereo not given), the Drug metabolism entry in assay [24] and in [25] was “Metabolite detected” in each case.
